Experiments:
HER14 cells = assay: viability assay with HER14 cells (MTT); type: cell-based; conditions: 0.1 nM dianthin-EGF, 72 h
Protocol: To test the efficacy of the invention, we conducted a viability assay with HER14 cells. These cells are fibroblasts stably transfected with the human epidermal growth factor receptor and therefore target cells for the targeted toxin dianthin-EGF. HER14 cells (2,000 cells/100 μL/well) were seeded into wells of 96-well-cell culture plates and incubated for 24 h in DMEM medium supplemented with 10% fetal calf serum and 1% penicillin/streptomycin at 37° C., 5% CO2 and 98% humidity. The different test substances (see results and FIG. 21) were then added in triplicates in a volume of 25 μL and supplemented with further 25 μL of medium. After an incubation of 72 h, 30 μL 3-(4,5-dimethylthiazol-2-yl)-2,5-diphenyltetrazolium bromide (0.5 mg/mL in water) was added per well and incubated for 2 h. Thereafter, the medium was carefully removed and replaced by an aqueous solution containing 10% (v/v) isopropanol, 5% (w/v) sodium dodecyl sulfate and 400 mM HCl, and incubated for 5 min. Solubilized formazan was photometrically quantitated at […] in a microplate reader (Spectra MAX 340 PC, Molecular Devices, Sunnyvale, Calif., USA). Untreated cells were normalized to 1 and all samples referred to the untreated control. Significance was determined by unpaired two-sample t-tests.

HeLa cells = assay: HeLa cell viability assay (MTS): inhibition of SO1861-mediated endosomal escape by polymeric structures; type: cell-based, human; conditions: […] dianthin-EGF + SO1861 curve, PAMAM 500 nM, chloroquine 500 nM, dendron 667 nM, 72 hr
Protocol: HeLa cells were seeded in DMEM (PAN-Biotech GmbH) supplemented with 10% fetal bovine serum (PAN-Biotech GmbH) and 1% penicillin/streptomycin (PAN-Biotech GmbH), in a 96 well plate at 5,000 c/w in 100 μL/well and incubated overnight at 37° C. and 5% CO2. The next day 20× concentrated stocks of the PAMAM, PAMAM-conjugates, G4-dendron (prepared in Example 3) or chloroquine (Sigma Aldrich) samples were prepared in DMEM. The media was removed from the cell culture plate and replaced by […] culture media, followed by the addition of 10 μL sample/well (from the 20× concentrated stocks) and a 45 min incubation at 37° C. […] Followed by 15 sec sonication and a brief re-heating at 50° C. for 1 min, while shaking at 1,250 rpm. Subsequently a serial dilution of SO1861 was prepared in PBS.
As control for the inhibition of endosomal acidification chloroquine was used.

## C[C@@H]1O[C@@H](O[C@H]2[C@H](OC(=O)[C@]34CCC(C)(C)C[C@H]3C3=CC[C@@H]5[C@@]6(C)CC[C@H](O[C@H]7O[C@H](C(=O)O)[C@@H](O)[C@H](O[C@@H]8OC[C@@H](O)[C@H](O)[C@H]8O)[C@H]7O[C@@H]7O[C@H](CO)[C@H](O)[C@H](O)[C@H]7O)[C@@](C)(C=O)[C@@H]6CC[C@@]5(C)[C@]3(C)CC4)O[C@H](C)[C@H](O[C@@H]3O[C@H](C)[C@@H](O)[C@H](O)[C@H]3O)[C@@H]2O)[C@H](O)[C@H](O)[C@H]1O[C@@H]1OC[C@@H](O)[C@H](O[C@@H]2OC[C@@H](O)[C@H](O)[C@H]2O)[C@H]1O [SA1641]
HER14 cells
  effect on the toxicity of dianthin-EGF: death of al cells

## CCN(CC)CCCC(C)Nc1ccnc2cc(Cl)ccc12 (centres unmarked) [chloroquine]
HeLa cells
  inhibition of SO1861-mediated endosomal escape of the targeted toxin and subsequent cell killing: inhibit
